# Assay results from patent US20130212744A1, “METHOD OF REDUCING INSECT-VECTORED VIRAL INFECTIONS” (priority 2010, published 2013).
# Like-named read-outs stand apart in the source and are kept apart here.
# Key:
# Format in all cases: in vivo
# [1] = test system: whitefly Bemisia tabaci nymphs; experiment: Foliar use field trial on tomato, efficacy on whitefly nymphs; conditions: Bemisia tabaci, foliar
# Procedure: (§1) Two studies were carried out in Elhasanya, Egypt in 2009 on tomato plants of the variety Fayrouz with the main goal to measure efficacy on the whitefly Bemisia tabaci. The plot size was 4.8 m^2 and 6 replicates were used in the trial. Products were applied 3 times on young tomato plants at BBCH stages 14, 17 and 51 at spray intervals between 12 and 19 days. The spray volume was at the first application 350 l/ha and later 500 l/ha. The evaluation of this study was done counting the adult whiteflies (Bemisia tabaci) as well as the nymphs and the eggs in each plot. In addition to the direct whitefly effect, visual symptoms of the virus, mainly TYLCV (tomato yellow leaf curl virus) were evaluated also.
# (§2) ASM=Acibenzolar-S-methyl. WG 50=Actigard® 50WG, a water-dispersible granule with the active ingredient ASM CYNT=Cyantraniliprole. WG 40=Cyazypyr®, a water dispersable granule with the active ingredient CYNT. Results on whitefly adults. Trial 1
# [2] = test system: whitefly Bemisia tabaci adults; experiment: Foliar use field trial on tomato, efficacy on whitefly adults; conditions: Bemisia tabaci, foliar
# Procedure: as §1, §2
# [3] = test system: whitefly Bemisia tabaci nymphs; experiment: Soil use (drench) field trial on tomato, efficacy on whitefly nymphs; conditions: for Emax at 12.5 g/ha: 12.5 g ai/ha; for Emax at 25 g/ha: 25 g ai/ha
# Procedure: as §1, with “Two soil applied” for “Two”, “plants” for “plants of the variety Fayrouz”, “Products were applied 3 times on young tomato plants at BBCH stages 14, 17 and 51 at spray intervals between 12 and 19 days.” left out, “350” for “350 l/ha and later 500”
# [4] = test system: whitefly Bemisia tabaci adults; experiment: Soil use (drench) field trial on tomato, efficacy on whitefly adults; conditions: for Emax at 12.5 g/ha: 12.5 g ai/ha; for Emax at 25 g/ha: 25 g ai/ha
# Procedure: as §1, with “Two soil applied” for “Two”, “plants” for “plants of the variety Fayrouz”, “once” for “3 times”, “stage 14 as a drench.” for “stages 14, 17 and 51 at spray intervals between 12 and 19 days.”, “350” for “350 l/ha and later 500”
smiles,measurement,setting,value
"CSC(=O)c1cccc2nnsc12 [ASM, S-methyl benzo[1,2,3]thiadiazole-7-carbothioate]",Emax,"[1]; 12.5 g ai/hl, 5DAA2, Trial 1, read-out: % Efficacy on Nymphs",5%
same,Emax,"[1]; 12.5 g ai/hl, 5DAA2, Trial 2, read-out: % Efficacy on Nymphs",5%
same,Emax,"[1]; 12.5 g ai/hl, 5DAA3, Trial 1, read-out: % Efficacy on Nymphs",62%
same,Emax,"[1]; 12.5 g ai/hl, 5DAA3, Trial 2, read-out: % Efficacy on Nymphs",62%
same,Emax,"[1]; 12.5 g ai/hl, 10DAA2, Trial 1, read-out: % Efficacy on Nymphs",52%
same,Emax,"[1]; 12.5 g ai/hl, 10DAA2, Trial 2, read-out: % Efficacy on Nymphs",52%
same,Emax,"[1]; 12.5 g ai/hl, 10DAA3, Trial 1, read-out: % Efficacy on Nymphs",46%
same,Emax,"[1]; 12.5 g ai/hl, 10DAA3, Trial 2, read-out: % Efficacy on Nymphs",46%
same,Emax,"[1]; 12.5 g ai/hl, 15DAA3, Trial 1, read-out: % Efficacy on Nymphs",42%
same,Emax,"[1]; 12.5 g ai/hl, 15DAA3, Trial 2, read-out: % Efficacy on Nymphs",42%
same,Emax,"[1]; 12.5 g ai/hl, 20DAA3, Trial 1, read-out: % Efficacy on Nymphs",27%
same,Emax,"[1]; 12.5 g ai/hl, 20DAA3, Trial 2, read-out: % Efficacy on Nymphs",27%
same,Emax,"[1]; 12.5 g ai/hl, Avg, Trial 1, read-out: % Efficacy on Nymphs Avg % C",39%
same,Emax,"[1]; 25 g ai/hl, 5DAA2, Trial 1, read-out: % Efficacy on Nymphs",57%
same,Emax,"[1]; 25 g ai/hl, 5DAA2, Trial 2, read-out: % Efficacy on Nymphs",57%
same,Emax,"[1]; 25 g ai/hl, 5DAA3, Trial 1, read-out: % Efficacy on Nymphs",66%
same,Emax,"[1]; 25 g ai/hl, 5DAA3, Trial 2, read-out: % Efficacy on Nymphs",66%
same,Emax,"[1]; 25 g ai/hl, 10DAA2, Trial 1, read-out: % Efficacy on Nymphs",65%
same,Emax,"[1]; 25 g ai/hl, 10DAA2, Trial 2, read-out: % Efficacy on Nymphs",65%
same,Emax,"[1]; 25 g ai/hl, 10DAA3, Trial 1, read-out: % Efficacy on Nymphs",53%
same,Emax,"[1]; 25 g ai/hl, 10DAA3, Trial 2, read-out: % Efficacy on Nymphs",53%
same,Emax,"[1]; 25 g ai/hl, 15DAA3, Trial 1, read-out: % Efficacy on Nymphs",55%
same,Emax,"[1]; 25 g ai/hl, 15DAA3, Trial 2, read-out: % Efficacy on Nymphs",55%
same,Emax,"[1]; 25 g ai/hl, 20DAA3, Trial 1, read-out: % Efficacy on Nymphs",39%
same,Emax,"[1]; 25 g ai/hl, 20DAA3, Trial 2, read-out: % Efficacy on Nymphs",39%
same,Emax,"[1]; 25 g ai/hl, Avg, Trial 1, read-out: % Efficacy on Nymphs Avg % C",56%
same,Emax,"[2]; 12.5 g ai/hl, 5DAA1, Trial 1, read-out: % Efficacy on Adults",53%
same,Emax,"[2]; 12.5 g ai/hl, 5DAA1, Trial 2, read-out: % Efficacy on Adults",53%
same,Emax,"[2]; 12.5 g ai/hl, 5DAA2, Trial 1, read-out: % Efficacy on Adults",45%
same,Emax,"[2]; 12.5 g ai/hl, 5DAA2, Trial 2, read-out: % Efficacy on Adults",45%
same,Emax,"[2]; 12.5 g ai/hl, 5DAA3, Trial 1, read-out: % Efficacy on Adults",55%
same,Emax,"[2]; 12.5 g ai/hl, 5DAA3, Trial 2, read-out: % Efficacy on Adults",55%
same,Emax,"[2]; 12.5 g ai/hl, 10DAA1, Trial 1, read-out: % Efficacy on Adults",43%
same,Emax,"[2]; 12.5 g ai/hl, 10DAA1, Trial 2, read-out: % Efficacy on Adults",43%
same,Emax,"[2]; 12.5 g ai/hl, 10DAA2, Trial 1, read-out: % Efficacy on Adults",37%
same,Emax,"[2]; 12.5 g ai/hl, 10DAA2, Trial 2, read-out: % Efficacy on Adults",37%
same,Emax,"[2]; 12.5 g ai/hl, 10DAA3, Trial 1, read-out: % Efficacy on Adults",46%
same,Emax,"[2]; 12.5 g ai/hl, 10DAA3, Trial 2, read-out: % Efficacy on Adults",46%
same,Emax,"[2]; 12.5 g ai/hl, 15DAA3, Trial 1, read-out: % Efficacy on Adults",38%
same,Emax,"[2]; 12.5 g ai/hl, 15DAA3, Trial 2, read-out: % Efficacy on Adults",38%
same,Emax,"[2]; 12.5 g ai/hl, 20DAA3, Trial 1, read-out: % Efficacy on Adults",12%
same,Emax,"[2]; 12.5 g ai/hl, 20DAA3, Trial 2, read-out: % Efficacy on Adults",12%
same,Emax,"[2]; 12.5 g ai/hl, Avg, Trial 1, read-out: % Efficacy on Adults Avg % C",41%
same,Emax,"[2]; 25 g ai/hl, 5DAA1, Trial 1, read-out: % Efficacy on Adults",59%
same,Emax,"[2]; 25 g ai/hl, 5DAA1, Trial 2, read-out: % Efficacy on Adults",59%
same,Emax,"[2]; 25 g ai/hl, 5DAA2, Trial 1, read-out: % Efficacy on Adults",52%
same,Emax,"[2]; 25 g ai/hl, 5DAA2, Trial 2, read-out: % Efficacy on Adults",52%
same,Emax,"[2]; 25 g ai/hl, 5DAA3, Trial 1, read-out: % Efficacy on Adults",57%
same,Emax,"[2]; 25 g ai/hl, 5DAA3, Trial 2, read-out: % Efficacy on Adults",57%
same,Emax,"[2]; 25 g ai/hl, 10DAA1, Trial 1, read-out: % Efficacy on Adults",43%
same,Emax,"[2]; 25 g ai/hl, 10DAA1, Trial 2, read-out: % Efficacy on Adults",43%
same,Emax,"[2]; 25 g ai/hl, 10DAA2, Trial 1, read-out: % Efficacy on Adults",39%
same,Emax,"[2]; 25 g ai/hl, 10DAA2, Trial 2, read-out: % Efficacy on Adults",39%
same,Emax,"[2]; 25 g ai/hl, 10DAA3, Trial 1, read-out: % Efficacy on Adults",49%
same,Emax,"[2]; 25 g ai/hl, 10DAA3, Trial 2, read-out: % Efficacy on Adults",49%
same,Emax,"[2]; 25 g ai/hl, 15DAA3, Trial 1, read-out: % Efficacy on Adults",40%
same,Emax,"[2]; 25 g ai/hl, 15DAA3, Trial 2, read-out: % Efficacy on Adults",40%
same,Emax,"[2]; 25 g ai/hl, 20DAA3, Trial 1, read-out: % Efficacy on Adults",22%
same,Emax,"[2]; 25 g ai/hl, 20DAA3, Trial 2, read-out: % Efficacy on Adults",22%
same,Emax,"[2]; 25 g ai/hl, Avg, Trial 1, read-out: % Efficacy on Adults Avg % C",45%
same,Emax at 12.5 g/ha,"[3]; 25DAA1, Trial 2",29%
same,Emax at 12.5 g/ha,"[3]; 30DAA1, Trial 2",39%
same,Emax at 12.5 g/ha,"[3]; 35DAA1, Trial 2",22%
same,Emax at 12.5 g/ha,"[3]; 40DAA2, Trial 2",11%
same,Emax at 25 g/ha,"[3]; 25DAA1, Trial 2",69%
same,Emax at 25 g/ha,"[3]; 30DAA1, Trial 2",43%
same,Emax at 25 g/ha,"[3]; 35DAA1, Trial 2",14%
same,Emax at 25 g/ha,"[3]; 40DAA2, Trial 2",6%
same,Emax at 12.5 g/ha,"[3]; 240 h, 10DAA, Trial 1",47%
same,Emax at 25 g/ha,"[3]; 240 h, 10DAA, Trial 1",50%
same,Emax at 12.5 g/ha,"[3]; 360 h, 15DAA, Trial 1",21%
same,Emax at 25 g/ha,"[3]; 360 h, 15DAA, Trial 1",47%
same,Emax at 12.5 g/ha,"[3]; 480 h, 20DAA, Trial 1",31%
same,Emax at 25 g/ha,"[3]; 480 h, 20DAA, Trial 1",54%
same,Emax at 12.5 g/ha,"[3]; 600 h, 25DAA, Trial 1",60%
same,Emax at 25 g/ha,"[3]; 600 h, 25DAA, Trial 1",50%
same,Emax at 12.5 g/ha,"[3]; 720 h, 30DAA, Trial 1",47%
same,Emax at 25 g/ha,"[3]; 720 h, 30DAA, Trial 1",49%
same,Emax at 12.5 g/ha,"[3]; 840 h, 35DAA, Trial 1",41%
same,Emax at 25 g/ha,"[3]; 840 h, 35DAA, Trial 1",44%
same,Emax at 12.5 g/ha,"[3]; 960 h, 40DAA, Trial 1",28%
same,Emax at 25 g/ha,"[3]; 960 h, 40DAA, Trial 1",33%
same,Emax at 12.5 g/ha,"[4]; 120 h, 5DAA, Trial 1",40%
same,Emax at 12.5 g/ha,"[4]; 120 h, 5DAA, Trial 2",29%
same,Emax at 25 g/ha,"[4]; 120 h, 5DAA, Trial 1",50%
same,Emax at 25 g/ha,"[4]; 120 h, 5DAA, Trial 2",36%
same,Emax at 12.5 g/ha,"[4]; 240 h, 10DAA, Trial 1",41%
same,Emax at 12.5 g/ha,"[4]; 240 h, 10DAA, Trial 2",34%
same,Emax at 25 g/ha,"[4]; 240 h, 10DAA, Trial 1",44%
same,Emax at 25 g/ha,"[4]; 240 h, 10DAA, Trial 2",45%
same,Emax at 12.5 g/ha,"[4]; 360 h, 15DAA, Trial 1",58%
same,Emax at 12.5 g/ha,"[4]; 360 h, 15DAA, Trial 2",35%
same,Emax at 25 g/ha,"[4]; 360 h, 15DAA, Trial 1",64%
same,Emax at 25 g/ha,"[4]; 360 h, 15DAA, Trial 2",45%
same,Emax at 12.5 g/ha,"[4]; 480 h, 20DAA, Trial 1",39%
same,Emax at 12.5 g/ha,"[4]; 480 h, 20DAA, Trial 2",31%
same,Emax at 25 g/ha,"[4]; 480 h, 20DAA, Trial 1",42%
same,Emax at 25 g/ha,"[4]; 480 h, 20DAA, Trial 2",43%
same,Emax at 12.5 g/ha,"[4]; 600 h, 25DAA, Trial 1",29%
same,Emax at 12.5 g/ha,"[4]; 600 h, 25DAA, Trial 2",25%
same,Emax at 25 g/ha,"[4]; 600 h, 25DAA, Trial 1",31%
same,Emax at 25 g/ha,"[4]; 600 h, 25DAA, Trial 2",35%
same,Emax at 12.5 g/ha,"[4]; 720 h, 30DAA, Trial 1",22%
same,Emax at 12.5 g/ha,"[4]; 720 h, 30DAA, Trial 2",19%
same,Emax at 25 g/ha,"[4]; 720 h, 30DAA, Trial 1",26%
same,Emax at 25 g/ha,"[4]; 720 h, 30DAA, Trial 2",30%
same,Emax at 12.5 g/ha,"[4]; 840 h, 35DAA, Trial 1",14%
same,Emax at 12.5 g/ha,"[4]; 840 h, 35DAA, Trial 2",12%
same,Emax at 25 g/ha,"[4]; 840 h, 35DAA, Trial 1",26%
same,Emax at 25 g/ha,"[4]; 840 h, 35DAA, Trial 2",23%
same,Emax at 12.5 g/ha,"[4]; 960 h, 40DAA, Trial 1",5%
same,Emax at 12.5 g/ha,"[4]; 960 h, 40DAA, Trial 2",9%
same,Emax at 25 g/ha,"[4]; 960 h, 40DAA, Trial 1",5%
same,Emax at 25 g/ha,"[4]; 960 h, 40DAA, Trial 2",10%
